Reference: PMC9927415, “Tyrosine Kinase Inhibitors Display Potent Activity against Cryptosporidium parvum” (Microbiology Spectrum, 2022)

How the values were obtained:
Assay in all cases: KINOMEscan competitive binding, whole panel
panel of 203 kinases [1] = target: T1, panel of 203 kinases (Homo sapiens, UniProt P09769); details: 10 µM, n=1; kinase FGR; read-out: Percent inhibition FGR
T1 construct: purchased DiscoverX (KINOMEscan)
Excerpt: (§1) The kinases were expressed as fusions to T7 bacteriophage. This is a sensitive, competitive binding assay where test compounds were used to displace immobilized ATP-site binding probe ligands from kinases of interest. The amount of kinase that remained bound to the immobilized probe ligands on the solid support was quantified. Percentage inhibition data were was plotted on kinome trees using the web-based tool KinMap (http://www.kinhub.org/kinmap) ([60]).

panel of 203 kinases [2] = target: T2, panel of 203 kinases (Homo sapiens, UniProt P21802); details: 10 µM, n=1; kinase FGFR2; read-out: Percent inhibition FGFR2
T2 construct: purchased DiscoverX (KINOMEscan)
T2 sequence (P21802 22-821): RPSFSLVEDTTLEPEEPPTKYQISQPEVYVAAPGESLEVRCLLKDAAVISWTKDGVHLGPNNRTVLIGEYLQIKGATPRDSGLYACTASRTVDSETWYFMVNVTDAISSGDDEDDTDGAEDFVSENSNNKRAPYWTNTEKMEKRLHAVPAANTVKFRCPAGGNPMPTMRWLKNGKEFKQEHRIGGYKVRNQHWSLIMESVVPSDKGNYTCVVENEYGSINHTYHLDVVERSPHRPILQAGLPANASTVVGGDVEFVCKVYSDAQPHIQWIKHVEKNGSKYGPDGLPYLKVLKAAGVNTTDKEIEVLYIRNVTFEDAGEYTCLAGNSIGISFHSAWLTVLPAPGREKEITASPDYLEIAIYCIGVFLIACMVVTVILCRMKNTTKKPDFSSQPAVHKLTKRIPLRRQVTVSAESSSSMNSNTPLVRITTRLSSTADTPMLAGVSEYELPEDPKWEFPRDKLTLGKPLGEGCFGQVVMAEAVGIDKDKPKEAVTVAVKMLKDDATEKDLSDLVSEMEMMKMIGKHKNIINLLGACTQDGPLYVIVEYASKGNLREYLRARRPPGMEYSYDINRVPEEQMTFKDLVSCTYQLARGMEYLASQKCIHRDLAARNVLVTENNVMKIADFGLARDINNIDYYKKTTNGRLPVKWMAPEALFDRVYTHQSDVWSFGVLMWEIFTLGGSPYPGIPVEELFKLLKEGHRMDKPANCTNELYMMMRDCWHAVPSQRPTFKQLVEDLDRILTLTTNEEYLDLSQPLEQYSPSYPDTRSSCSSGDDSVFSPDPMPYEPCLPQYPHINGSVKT
Excerpt: as §1

panel of 203 kinases [3] = target: T3, panel of 203 kinases (Homo sapiens, UniProt P22607); details: 10 µM, n=1; kinase FGFR3; read-out: Percent inhibition FGFR3
T3 construct: purchased DiscoverX (KINOMEscan)
T3 sequence (P22607 23-806): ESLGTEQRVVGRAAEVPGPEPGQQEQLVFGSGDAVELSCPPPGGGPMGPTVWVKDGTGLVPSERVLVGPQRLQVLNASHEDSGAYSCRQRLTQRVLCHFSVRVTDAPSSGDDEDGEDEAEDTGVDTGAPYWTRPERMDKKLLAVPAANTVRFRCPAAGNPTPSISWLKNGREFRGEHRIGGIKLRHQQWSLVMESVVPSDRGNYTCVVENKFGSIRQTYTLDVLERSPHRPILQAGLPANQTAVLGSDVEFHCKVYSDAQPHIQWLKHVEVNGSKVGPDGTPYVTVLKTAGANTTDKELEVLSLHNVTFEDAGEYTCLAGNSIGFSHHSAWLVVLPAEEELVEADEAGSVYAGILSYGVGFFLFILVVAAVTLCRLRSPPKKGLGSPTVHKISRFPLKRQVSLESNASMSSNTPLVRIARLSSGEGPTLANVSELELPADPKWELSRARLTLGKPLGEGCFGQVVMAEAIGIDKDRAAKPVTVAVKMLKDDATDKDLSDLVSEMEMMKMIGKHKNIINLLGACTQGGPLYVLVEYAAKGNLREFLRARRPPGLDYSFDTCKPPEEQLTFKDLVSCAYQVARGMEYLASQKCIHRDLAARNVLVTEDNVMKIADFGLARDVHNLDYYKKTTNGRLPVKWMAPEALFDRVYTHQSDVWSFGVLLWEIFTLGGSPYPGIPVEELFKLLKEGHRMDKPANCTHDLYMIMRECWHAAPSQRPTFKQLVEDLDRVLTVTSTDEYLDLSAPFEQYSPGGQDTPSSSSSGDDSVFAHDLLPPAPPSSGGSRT
Excerpt: as §1

panel of 203 kinases [4] = target: T4, panel of 203 kinases (Homo sapiens, UniProt P31749); details: 10 µM, n=1; kinase AKT1; read-out: Percent inhibition AKT1
T4 construct: purchased DiscoverX (KINOMEscan)
T4 sequence (P31749 whole entry): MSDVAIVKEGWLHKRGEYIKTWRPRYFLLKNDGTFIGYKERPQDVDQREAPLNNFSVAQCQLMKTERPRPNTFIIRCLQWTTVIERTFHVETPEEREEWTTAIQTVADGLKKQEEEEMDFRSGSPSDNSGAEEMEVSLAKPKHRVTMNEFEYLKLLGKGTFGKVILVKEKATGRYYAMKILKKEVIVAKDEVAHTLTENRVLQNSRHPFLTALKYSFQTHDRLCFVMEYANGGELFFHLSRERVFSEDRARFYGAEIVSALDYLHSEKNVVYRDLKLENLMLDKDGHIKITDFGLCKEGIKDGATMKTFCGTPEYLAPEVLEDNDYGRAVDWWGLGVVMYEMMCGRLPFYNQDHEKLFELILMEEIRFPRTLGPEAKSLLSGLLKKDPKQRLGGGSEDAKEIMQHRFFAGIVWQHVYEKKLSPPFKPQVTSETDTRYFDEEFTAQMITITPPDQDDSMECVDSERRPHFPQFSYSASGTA
Excerpt: as §1

panel of 203 kinases [5] = target: T5, panel of 203 kinases (Homo sapiens, UniProt P31751); details: 10 µM, n=1; kinase AKT2; read-out: Percent inhibition AKT2
T5 construct: purchased DiscoverX (KINOMEscan)
Excerpt: as §1

panel of 203 kinases [6] = target: T6, panel of 203 kinases (Homo sapiens, UniProt P35916); details: 10 µM, n=1; kinase FLT4; read-out: Percent inhibition FLT4
T6 construct: purchased DiscoverX (KINOMEscan)
Excerpt: as §1

panel of 203 kinases [7] = target: T7, panel of 203 kinases (Homo sapiens, UniProt P37023); details: 10 µM, n=1; kinase ACVRL1; read-out: Percent inhibition ACVRL1
T7 construct: purchased DiscoverX (KINOMEscan)
Excerpt: as §1

panel of 203 kinases [8] = target: T8, panel of 203 kinases (Homo sapiens, UniProt P45984); details: 10 µM, n=1; kinase JNK2; read-out: Percent inhibition JNK2
T8 construct: purchased DiscoverX (KINOMEscan)
T8 sequence (P45984 whole entry): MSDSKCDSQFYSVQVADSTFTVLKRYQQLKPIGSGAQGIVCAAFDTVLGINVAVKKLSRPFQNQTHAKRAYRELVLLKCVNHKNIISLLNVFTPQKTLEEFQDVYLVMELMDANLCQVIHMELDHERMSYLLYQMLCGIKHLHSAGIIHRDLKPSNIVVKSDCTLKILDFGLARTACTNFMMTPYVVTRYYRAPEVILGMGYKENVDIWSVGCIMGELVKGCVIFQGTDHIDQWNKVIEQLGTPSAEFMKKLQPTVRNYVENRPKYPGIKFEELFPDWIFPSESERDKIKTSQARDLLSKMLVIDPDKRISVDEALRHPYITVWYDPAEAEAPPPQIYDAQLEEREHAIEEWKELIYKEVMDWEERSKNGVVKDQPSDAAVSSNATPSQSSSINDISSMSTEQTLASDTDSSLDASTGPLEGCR
Excerpt: as §1

panel of 203 kinases [9] = target: T9, panel of 203 kinases (Homo sapiens, UniProt P54760); details: 10 µM, n=1; kinase EPHB4; read-out: Percent inhibition EPHB4
T9 construct: purchased DiscoverX (KINOMEscan)
T9 sequence (P54760 16-987): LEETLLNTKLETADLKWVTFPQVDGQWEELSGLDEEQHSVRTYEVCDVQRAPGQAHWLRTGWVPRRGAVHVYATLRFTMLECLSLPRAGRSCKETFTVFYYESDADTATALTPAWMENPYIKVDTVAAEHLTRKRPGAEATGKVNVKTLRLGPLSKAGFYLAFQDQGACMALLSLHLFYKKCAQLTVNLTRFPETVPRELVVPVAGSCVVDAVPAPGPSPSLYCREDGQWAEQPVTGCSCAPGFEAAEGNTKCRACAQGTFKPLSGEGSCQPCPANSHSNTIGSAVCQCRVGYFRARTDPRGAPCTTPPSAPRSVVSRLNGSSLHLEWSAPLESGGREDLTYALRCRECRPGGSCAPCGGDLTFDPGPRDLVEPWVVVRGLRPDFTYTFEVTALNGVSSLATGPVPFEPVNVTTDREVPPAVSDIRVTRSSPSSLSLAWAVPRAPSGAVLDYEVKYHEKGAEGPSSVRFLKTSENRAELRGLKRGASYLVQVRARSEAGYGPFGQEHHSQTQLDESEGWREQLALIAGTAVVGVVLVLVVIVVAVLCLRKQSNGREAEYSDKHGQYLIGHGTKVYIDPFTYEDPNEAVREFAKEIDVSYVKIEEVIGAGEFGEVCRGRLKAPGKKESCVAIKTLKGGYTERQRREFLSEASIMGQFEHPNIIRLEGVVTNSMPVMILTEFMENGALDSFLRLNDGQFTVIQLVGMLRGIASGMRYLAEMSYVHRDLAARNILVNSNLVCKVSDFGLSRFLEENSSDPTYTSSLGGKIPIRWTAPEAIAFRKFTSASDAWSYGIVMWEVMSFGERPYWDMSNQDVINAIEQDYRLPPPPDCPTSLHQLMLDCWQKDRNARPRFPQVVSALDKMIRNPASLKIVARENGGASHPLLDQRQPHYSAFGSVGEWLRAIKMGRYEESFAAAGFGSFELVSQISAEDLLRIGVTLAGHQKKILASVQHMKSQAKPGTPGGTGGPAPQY
Excerpt: as §1

panel of 203 kinases [10] = target: T10, panel of 203 kinases (Homo sapiens, UniProt Q13705); details: 10 µM, n=1; kinase ACVR2B; read-out: Percent inhibition ACVR2B
T10 construct: purchased DiscoverX (KINOMEscan)
T10 sequence (Q13705 19-512): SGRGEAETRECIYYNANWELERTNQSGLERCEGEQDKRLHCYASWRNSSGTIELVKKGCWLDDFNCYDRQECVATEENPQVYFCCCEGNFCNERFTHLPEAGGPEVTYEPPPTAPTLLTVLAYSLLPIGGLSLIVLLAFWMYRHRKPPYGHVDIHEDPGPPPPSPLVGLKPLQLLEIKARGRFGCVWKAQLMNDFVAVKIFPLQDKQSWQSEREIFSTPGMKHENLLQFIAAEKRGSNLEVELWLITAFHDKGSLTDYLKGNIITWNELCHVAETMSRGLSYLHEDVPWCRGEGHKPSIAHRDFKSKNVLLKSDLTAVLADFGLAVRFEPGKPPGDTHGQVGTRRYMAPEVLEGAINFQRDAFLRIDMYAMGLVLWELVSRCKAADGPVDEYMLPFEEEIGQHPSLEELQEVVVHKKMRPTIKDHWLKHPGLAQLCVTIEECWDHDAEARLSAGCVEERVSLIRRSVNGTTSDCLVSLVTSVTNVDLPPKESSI
Excerpt: as §1

panel of 203 kinases [11] = target: T11, panel of 203 kinases (Homo sapiens, UniProt Q15759); details: 10 µM, n=1; kinase p38-beta; read-out: Percent inhibition p38-beta
T11 construct: purchased DiscoverX (KINOMEscan)
T11 sequence (Q15759 whole entry): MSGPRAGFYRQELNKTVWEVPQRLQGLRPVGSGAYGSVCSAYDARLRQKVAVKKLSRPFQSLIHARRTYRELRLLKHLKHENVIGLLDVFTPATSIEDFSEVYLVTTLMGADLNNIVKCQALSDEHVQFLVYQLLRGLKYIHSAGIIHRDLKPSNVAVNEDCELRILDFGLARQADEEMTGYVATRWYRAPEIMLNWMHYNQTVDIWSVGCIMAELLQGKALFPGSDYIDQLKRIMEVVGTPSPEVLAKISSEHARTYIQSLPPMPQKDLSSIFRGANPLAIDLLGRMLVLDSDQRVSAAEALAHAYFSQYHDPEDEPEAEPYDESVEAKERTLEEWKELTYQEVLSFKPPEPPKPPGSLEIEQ
Excerpt: as §1

panel of 203 kinases [12] = target: T12, panel of 203 kinases (Homo sapiens, UniProt Q7KZI7); details: 10 µM, n=1; kinase MARK2; read-out: Percent inhibition MARK2
T12 construct: purchased DiscoverX (KINOMEscan)
Excerpt: as §1

panel of 203 kinases [13] = target: T13, panel of 203 kinases (Homo sapiens, UniProt Q8N752); details: 10 µM, n=1; kinase CSNK1A1L; read-out: Percent inhibition CSNK1A1L
T13 construct: purchased DiscoverX (KINOMEscan)
T13 sequence (Q8N752 1-337): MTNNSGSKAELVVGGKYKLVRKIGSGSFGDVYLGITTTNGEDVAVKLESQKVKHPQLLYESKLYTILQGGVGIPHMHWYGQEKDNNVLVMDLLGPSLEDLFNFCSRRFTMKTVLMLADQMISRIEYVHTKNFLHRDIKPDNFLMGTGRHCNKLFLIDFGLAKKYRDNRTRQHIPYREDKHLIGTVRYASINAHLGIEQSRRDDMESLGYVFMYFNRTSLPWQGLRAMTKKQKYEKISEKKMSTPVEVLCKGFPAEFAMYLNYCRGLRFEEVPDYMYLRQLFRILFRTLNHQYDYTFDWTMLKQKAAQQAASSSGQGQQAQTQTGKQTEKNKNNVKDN
Excerpt: as §1

panel of 203 kinases [14] = target: T14, panel of 203 kinases (Homo sapiens, UniProt Q92918); details: 10 µM, n=1; kinase MAP4K1; read-out: Percent inhibition MAP4K1
T14 construct: purchased DiscoverX (KINOMEscan)
T14 sequence (Q92918 whole entry): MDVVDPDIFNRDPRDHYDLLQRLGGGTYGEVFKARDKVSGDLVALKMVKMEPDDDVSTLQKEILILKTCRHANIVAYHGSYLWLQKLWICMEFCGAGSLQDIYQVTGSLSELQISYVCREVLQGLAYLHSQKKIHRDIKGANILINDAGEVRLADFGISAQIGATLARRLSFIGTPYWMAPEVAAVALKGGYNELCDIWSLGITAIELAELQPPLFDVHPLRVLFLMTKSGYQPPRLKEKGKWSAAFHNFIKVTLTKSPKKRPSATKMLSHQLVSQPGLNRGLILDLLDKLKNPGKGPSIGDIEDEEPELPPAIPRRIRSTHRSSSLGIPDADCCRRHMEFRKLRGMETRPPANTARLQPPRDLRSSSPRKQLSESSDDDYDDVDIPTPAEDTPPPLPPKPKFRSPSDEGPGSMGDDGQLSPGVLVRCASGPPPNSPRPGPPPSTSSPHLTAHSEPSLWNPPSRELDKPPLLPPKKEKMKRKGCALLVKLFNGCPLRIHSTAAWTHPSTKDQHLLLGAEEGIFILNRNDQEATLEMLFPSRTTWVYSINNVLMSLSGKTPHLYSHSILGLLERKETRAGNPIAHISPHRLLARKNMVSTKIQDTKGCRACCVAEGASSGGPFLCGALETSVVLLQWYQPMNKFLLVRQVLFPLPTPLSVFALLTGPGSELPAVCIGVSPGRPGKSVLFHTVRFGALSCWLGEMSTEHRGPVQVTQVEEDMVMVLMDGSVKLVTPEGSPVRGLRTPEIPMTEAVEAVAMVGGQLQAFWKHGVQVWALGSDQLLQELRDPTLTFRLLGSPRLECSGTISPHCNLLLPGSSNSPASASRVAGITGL
Excerpt: as §1

panel of 203 kinases [15] = target: T15, panel of 203 kinases (Homo sapiens, UniProt Q9HAZ1); details: 10 µM, n=1; kinase CLK4; read-out: Percent inhibition CLK4
T15 construct: purchased DiscoverX (KINOMEscan)
Excerpt: as §1

panel of 203 kinases [16] = target: T16, panel of 203 kinases (Homo sapiens, UniProt Q9HC98); details: 10 µM, n=1; kinase NEK6; read-out: Percent inhibition NEK6
T16 construct: purchased DiscoverX (KINOMEscan)
T16 sequence (Q9HC98 whole entry): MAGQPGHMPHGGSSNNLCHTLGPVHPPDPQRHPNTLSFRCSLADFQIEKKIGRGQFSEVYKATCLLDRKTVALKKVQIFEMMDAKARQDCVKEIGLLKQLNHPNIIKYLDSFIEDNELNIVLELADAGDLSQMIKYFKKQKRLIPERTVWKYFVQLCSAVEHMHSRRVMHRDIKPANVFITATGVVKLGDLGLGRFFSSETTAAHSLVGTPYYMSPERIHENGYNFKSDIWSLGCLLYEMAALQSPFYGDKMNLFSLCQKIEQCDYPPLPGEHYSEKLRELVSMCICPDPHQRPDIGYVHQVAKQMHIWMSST
Excerpt: as §1

panel of 203 kinases [17] = target: T17, panel of 203 kinases (Homo sapiens, UniProt Q9Y6E0); details: 10 µM, n=1; kinase MST3; read-out: Percent inhibition MST3
T17 construct: purchased DiscoverX (KINOMEscan)
Excerpt: as §1

T1 sequence (P09769 whole entry): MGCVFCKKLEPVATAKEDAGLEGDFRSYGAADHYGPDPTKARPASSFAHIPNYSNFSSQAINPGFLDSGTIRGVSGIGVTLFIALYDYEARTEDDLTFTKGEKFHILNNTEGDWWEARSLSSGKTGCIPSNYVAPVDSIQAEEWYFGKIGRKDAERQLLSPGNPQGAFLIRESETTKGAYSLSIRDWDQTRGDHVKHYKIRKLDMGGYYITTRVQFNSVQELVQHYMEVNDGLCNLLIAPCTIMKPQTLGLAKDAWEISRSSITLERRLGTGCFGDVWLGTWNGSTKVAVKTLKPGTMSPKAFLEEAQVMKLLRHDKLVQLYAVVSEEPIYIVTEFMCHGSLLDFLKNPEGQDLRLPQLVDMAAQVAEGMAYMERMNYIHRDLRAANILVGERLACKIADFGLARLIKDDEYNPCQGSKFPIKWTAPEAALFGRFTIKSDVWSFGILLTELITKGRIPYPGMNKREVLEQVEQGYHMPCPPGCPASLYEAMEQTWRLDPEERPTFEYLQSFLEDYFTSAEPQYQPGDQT

Row | SMILES | inhibition at 10 µM (panel of 203 kinases [1]) [%] | inhibition at 10 µM (panel of 203 kinases [2]) [%] | inhibition at 10 µM (panel of 203 kinases [3]) [%] | inhibition at 10 µM (panel of 203 kinases [4]) [%] | inhibition at 10 µM (panel of 203 kinases [5]) [%] | inhibition at 10 µM (panel of 203 kinases [6]) [%] | inhibition at 10 µM (panel of 203 kinases [7]) [%] | inhibition at 10 µM (panel of 203 kinases [8]) [%] | inhibition at 10 µM (panel of 203 kinases [9]) [%] | inhibition at 10 µM (panel of 203 kinases [10]) [%] | inhibition at 10 µM (panel of 203 kinases [11]) [%] | inhibition at 10 µM (panel of 203 kinases [12]) [%] | inhibition at 10 µM (panel of 203 kinases [13]) [%] | inhibition at 10 µM (panel of 203 kinases [14]) [%] | inhibition at 10 µM (panel of 203 kinases [15]) [%] | inhibition at 10 µM (panel of 203 kinases [16]) [%] | inhibition at 10 µM (panel of 203 kinases [17]) [%]
1 | CN1CCN(c2ccc(Nc3nccc(-c4cnn5ncccc45)n3)cc2C#N)CC1 [Compound 1] | 89.5 | 70.1 | 0 | 0 | 0 | 71.9 | 85 | 96.5 | 0 | 0 | 0 | 92 | 100 | 99.5 | 99.5 | 100 | 99.4
2 | COc1ccc(Nc2nccc(-c3cnn4ncccc34)n2)cc1 [Compound 2] | 67.4 | 0 | 67.6 | 0 | 0 | 70.1 | 0 | 99.1 | 0 | 80.3 | 0 | 0 | 89.7 | 0 | 98.7 | 100 | 72
3 | Cc1ccc(O)cc1Nc1ccnc(Nc2cccc(C(N)=O)c2)n1 [Compound 3] | 100 | 0 | 0 | 0 | 0 | 99.2 | 99.7 | 0 | 100 | 100 | 94.8 | 0 | 99.8 | 83.9 | 0 | 0 | 0
4 | Cc1ccc(O)cc1N(C)c1ccnc(Nc2cccc(S(N)(=O)=O)c2)n1 [Compound 4] | 100 | 0 | 65.4 | 0 | 0 | 99.7 | 100 | 71.3 | 100 | 100 | 100 | 66 | 100 | 99.5 | 0 | 0 | 0
5 | Fc1cccc(COc2ccc(Nc3ncnc4c3CN(CCN3CCOCC3)CC4)cc2Cl)c1 [Compound 6] | 0 | 0 | 96.3 | 0 | 0 | 0 | 0 | 0 | 0 | 0 | 0 | 0 | 0 | 0 | 0 | 0 | 0
6 | COc1cc(Nc2nccc(-c3sc(N)nc3-c3cccc(NC(=O)c4c(F)cccc4F)c3)n2)cc(OC)c1OC [Compound 7] | 100 | 100 | 100 | 0 | 0 | 100 | 0 | 99 | 91.9 | 97.5 | 100 | 73.7 | 0 | 96.3 | 0 | 97.4 | 93.8
7 | C[C@@H](Oc1cc(-c2cnc3ccccn23)sc1C(N)=O)c1ccccc1Cl [Compound 8] | 0 | 0 | 0 | 0 | 0 | 84 | 0 | 0 | 0 | 0 | 0 | 0 | 0 | 0 | 81 | 0 | 0
8 | c1ccc(COc2cccc(-c3ccnc4[nH]ccc34)c2)cc1 [Compound 9] | 0 | 0 | 0 | 0 | 0 | 0 | 0 | 0 | 0 | 0 | 0 | 0 | 0 | 0 | 0 | 0 | 0
9 | Clc1ccc(Nc2ncc(-c3ccccc3)s2)cc1 [Compound 10] | 0 | 0 | 0 | 0 | 0 | 0 | 0 | 0 | 0 | 0 | 0 | 0 | 0 | 0 | 0 | 0 | 0
